What was measured:
Beta-lactamase = Beta-lactamase (Enterobacter cloacae, UniProt P05364); test: Inhibitor activity against Beta-lactamase, derived from the Gram negative bacteria Enterobacter cloacae at pH 7
[1] = pKa value was determined; type: physicochemical

Beta-lactamase, sequence (P05364 whole entry): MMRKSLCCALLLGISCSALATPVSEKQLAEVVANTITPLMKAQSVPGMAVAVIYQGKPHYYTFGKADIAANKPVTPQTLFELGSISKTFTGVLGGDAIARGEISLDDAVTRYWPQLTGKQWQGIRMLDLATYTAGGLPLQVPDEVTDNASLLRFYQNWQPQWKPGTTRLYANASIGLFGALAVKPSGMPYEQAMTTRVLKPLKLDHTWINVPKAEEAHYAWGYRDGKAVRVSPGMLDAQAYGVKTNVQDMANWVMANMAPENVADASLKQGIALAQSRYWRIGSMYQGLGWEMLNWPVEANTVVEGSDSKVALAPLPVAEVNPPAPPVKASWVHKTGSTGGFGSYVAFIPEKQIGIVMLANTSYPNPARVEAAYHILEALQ

Row | kinact/Ki (Beta-lactamase) | pKa [1] | Compound
1 | 0.07 M⁻¹ s⁻¹ |  | CC(C)C1CN(C(=O)c2ccccc2)S1(=O)=O (stereo not drawn)
2 | 163 M⁻¹ s⁻¹ | 6.3 | O=C(c1ccccc1)N1CCS1(=O)=O
